Experimental data as given in US9624170B2, “4-(piperrazin-1-yl)-pyrrolidin-2-one compounds as monoacylglycerol lipase (MAGL) inhibitors” (TAKEDA PHARMACEUTICAL COMPANY LIMITED, priority 2013, dated 2017).

Target: T1, human MAGL (His-hMAGL) (Homo sapiens, UniProt Q99685)
T1 construct: made in house; host or cells: Escherichia coli BL21(DE3)
T1 sequence (Q99685 1-303): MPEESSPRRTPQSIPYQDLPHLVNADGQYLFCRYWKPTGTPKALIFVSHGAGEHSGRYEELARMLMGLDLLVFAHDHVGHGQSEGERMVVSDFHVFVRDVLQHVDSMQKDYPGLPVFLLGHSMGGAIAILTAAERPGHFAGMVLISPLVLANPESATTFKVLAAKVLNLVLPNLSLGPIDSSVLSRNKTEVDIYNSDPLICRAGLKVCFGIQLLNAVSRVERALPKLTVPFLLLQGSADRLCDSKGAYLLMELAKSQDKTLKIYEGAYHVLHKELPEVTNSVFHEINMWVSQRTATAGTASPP
Assay: Measurement of MAGL inhibitory activity by mass spectrometry
Type: biochemical
Conditions: MAGL inhibitory rate, test compound 10 μM, His-hMAGL, substrate 2-arachidonylglycerol, RapidFire-mass spectrometry
In short: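 His-tagged human MAGL was reacted with 150 μM 2-arachidonylglycerol substrate (stock, added by 5 μL) for 10 min at room temperature, then stopped with formic acid. Arachidonic acid product was quantified by RapidFire–triple-quadrupole MS in negative SRM mode, corrected by arachidonic acid-d8, and converted to percent inhibition.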

Row | SMILES | inhibition at 10 µM [%]
1 | Cc1c(-c2cccc(N3CC(N4CCN(C(=O)c5nccs5)CC4)CC3=O)c2)cnn1C (stereo not shown) [Example 324, 1-(3-(1,5-dimethyl-1H-pyrazol-4-yl)phenyl)-4-(4-(1,3-thiazol-2-ylcarbonyl)piperazin-1-yl)pyrrolidin-2-one] | 101
2 | Cc1nn(C)cc1-c1cccc(N2CC(N3CCN(C(=O)c4nccs4)CC3)CC2=O)c1 (stereo not shown) [Example 325, 1-(3-(1,3-dimethyl-1H-pyrazol-4-yl)phenyl)-4-(4-(1,3-thiazol-2-ylcarbonyl)piperazin-1-yl)pyrrolidin-2-one] | 101
3 | Cn1ncc2c(-c3cccc(N4CC(N5CCN(C(=O)c6nccs6)CC5)CC4=O)c3)cccc21 (stereo not shown) [Example 326, 1-(3-(1-methyl-1H-indazol-4-yl)phenyl)-4-(4-(1,3-thiazol-2-ylcarbonyl)piperazin-1-yl)pyrrolidin-2-one] | 105
4 | O=C(c1nccs1)N1CCN(C2CC(=O)N(c3cccc(-c4c[nH]nc4C(F)(F)F)c3)C2)CC1 (stereo not shown) [Example 327, 4-(4-(1,3-thiazol-2-ylcarbonyl)piperazin-1-yl)-1-(3-(3-(trifluoromethyl)-1H-pyrazol-4-yl)phenyl)pyrrolidin-2-one] | 100
5 | O=C(c1nccs1)N1CCN(C2CC(=O)N(c3cccc(-c4coc5ccccc45)c3)C2)CC1 (stereo not shown) [Example 328, 1-(3-(1-benzofuran-3-yl)phenyl)-4-(4-(1,3-thiazol-2-ylcarbonyl)piperazin-1-yl)pyrrolidin-2-one] | 102
6 | O=C(c1nccs1)N1CCN(C2CC(=O)N(c3cccc(-c4cccc5ccoc45)c3)C2)CC1 (stereo not shown) [Example 329, 1-(3-(1-benzofuran-7-yl)phenyl)-4-(4-(1,3-thiazol-2-ylcarbonyl)piperazin-1-yl)pyrrolidin-2-one] | 104
7 | O=C(c1nccs1)N1CCN(C2CC(=O)N(c3cccc(-c4c(F)c(F)c(F)c(F)c4F)c3)C2)CC1 (stereo not shown) [Example 330, 1-(2′,3′,4′,5′,6′-pentafluorobiphenyl-3-yl)-4-(4-(1,3-thiazol-2-ylcarbonyl)piperazin-1-yl)pyrrolidin-2-one] | 101
8 | O=C(c1nccs1)N1CCN(C2CC(=O)N(c3cccc(-c4cnc5ccccn45)c3)C2)CC1 (stereo not shown) [Example 331, 1-(3-(imidazo[1,2-a]pyridin-3-yl)phenyl)-4-(4-(1,3-thiazol-2-ylcarbonyl)piperazin-1-yl)pyrrolidin-2-one] | 101
9 | O=C(c1nccs1)N1CCN(C2CC(=O)N(c3cccc(-c4n[nH]c5ccccc45)c3)C2)CC1 (stereo not shown) [Example 332, 1-(3-(1H-indazol-3-yl)phenyl)-4-(4-(1,3-thiazol-2-ylcarbonyl)piperazin-1-yl)pyrrolidin-2-one] | 100
10 | Cn1ccnc1-c1cccc(N2CC(N3CCN(C(=O)c4nccs4)CC3)CC2=O)c1 (stereo not shown) [Example 333, 1-(3-(1-methyl-1H-imidazol-2-yl)phenyl)-4-(4-(1,3-thiazol-2-ylcarbonyl)piperazin-1-yl)pyrrolidin-2-one] | 83
11 | O=C(c1nccs1)N1CCN(C2CC(=O)N(c3cccc(-c4nsc5ccccc45)c3)C2)CC1 (stereo not shown) [Example 334, 1-(3-(1,2-benzothiazol-3-yl)phenyl)-4-(4-(1,3-thiazol-2-ylcarbonyl)piperazin-1-yl)pyrrolidin-2-one] | 103
12 | Cc1nc2ccccn2c1-c1cccc(N2CC(N3CCN(C(=O)c4nccs4)CC3)CC2=O)c1 (stereo not shown) [Example 335, 1-(3-(2-methylimidazo[1,2-a]pyridin-3-yl)phenyl)-4-(4-(1,3-thiazol-2-ylcarbonyl)piperazin-1-yl)pyrrolidin-2-one] | 101
13 | N#Cc1cccc(F)c1-c1cccc(N2CC(N3CCN(C(=O)c4nccs4)CC3)CC2=O)c1 (stereo not shown) [Example 336, 6-fluoro-3′-(2-oxo-4-(4-(1,3-thiazol-2-ylcarbonyl)piperazin-1-yl)pyrrolidin-1-yl)biphenyl-2-carbonitrile] | 100
14 | O=C(c1nccs1)N1CCN(C2CC(=O)N(c3cccc(-c4c[nH]c5ncccc45)c3)C2)CC1 (stereo not shown) [Example 337, 1-(3-(1H-pyrrolo[2,3-b]pyridin-3-yl)phenyl)-4-(4-(1,3-thiazol-2-ylcarbonyl)piperazin-1-yl)pyrrolidin-2-one] | 99
15 | O=C(c1nccs1)N1CCN(C2CC(=O)N(c3cccc(-c4cccc5ccnn45)c3)C2)CC1 (stereo not shown) [Example 338, 1-(3-(pyrazolo[1,5-a]pyridin-7-yl)phenyl)-4-(4-(1,3-thiazol-2-ylcarbonyl)piperazin-1-yl)pyrrolidin-2-one] | 98
16 | COc1nccc(C)c1-c1cccc(N2CC(N3CCN(C(=O)c4nccs4)CC3)CC2=O)c1 (stereo not shown) [Example 339, 1-(3-(2-methoxy-4-methylpyridin-3-yl)phenyl)-4-(4-(1,3-thiazol-2-ylcarbonyl)piperazin-1-yl)pyrrolidin-2-one] | 100

Row | SMILES | inhibition at 10 µM [%]
17 | O=C(c1nccs1)N1CCN(C2CC(=O)N(c3cccc(-c4cccc5nccn45)c3)C2)CC1 (stereo not shown) [Example 340, 1-(3-(imidazo[1,2-a]pyridin-5-yl)phenyl)-4-(4-(1,3-thiazol-2-ylcarbonyl)piperazin-1-yl)pyrrolidin-2-one] | 99
18 | O=C(c1nccs1)N1CCN(C2CC(=O)N(c3cccc(-c4ccsc4C(F)(F)F)c3)C2)CC1 (stereo not shown) [Example 341, 4-(4-(1,3-thiazol-2-ylcarbonyl)piperazin-1-yl)-1-(3-(2-(trifluoromethyl)-3-thienyl)phenyl)pyrrolidin-2-one] | 101
19 | O=C(c1nccs1)N1CCN(C2CC(=O)N(c3cccc(-c4cccn5ccnc45)c3)C2)CC1 (stereo not shown) [Example 342, 1-(3-(imidazo[1,2-a]pyridin-8-yl)phenyl)-4-(4-(1,3-thiazol-2-ylcarbonyl)piperazin-1-yl)pyrrolidin-2-one] | 100
20 | COc1nccc2[nH]cc(-c3cccc(N4CC(N5CCN(C(=O)c6nccs6)CC5)CC4=O)c3)c12 (stereo not shown) [Example 343, 1-(3-(4-methoxy-1H-pyrrolo[3,2-c]pyridin-3-yl)phenyl)-4-(4-(1,3-thiazol-2-ylcarbonyl)piperazin-1-yl)pyrrolidin-2-one] | 101
21 | O=C(c1nccs1)N1CCN(C2CC(=O)N(c3cccc(-c4c(F)cccc4Cl)c3)C2)CC1 (stereo not shown) [Example 344, 1-(2′-chloro-6′-fluorobiphenyl-3-yl)-4-(4-(1,3-thiazol-2-ylcarbonyl)piperazin-1-yl)pyrrolidin-2-one] | 98
22 | Cc1cn2c(-c3cccc(N4CC(N5CCN(C(=O)c6nccs6)CC5)CC4=O)c3)cccc2n1 (stereo not shown) [Example 345, 1-(3-(2-methylimidazo[1,2-a]pyridin-5-yl)phenyl)-4-(4-(1,3-thiazol-2-ylcarbonyl)piperazin-1-yl)pyrrolidin-2-one] | 97
23 | O=C(c1nccs1)N1CCN(C2CC(=O)N(c3cccc(-c4ccnc5sccc45)c3)C2)CC1 (stereo not shown) [Example 346, 4-(4-(1,3-thiazol-2-ylcarbonyl)piperazin-1-yl)-1-(3-(thieno[2,3-b]pyridin-4-yl)phenyl)pyrrolidin-2-one] | 99
24 | O=C(c1nccs1)N1CCN(C2CC(=O)N(c3cccc(-c4csc5ncccc45)c3)C2)CC1 (stereo not shown) [Example 347, 4-(4-(1,3-thiazol-2-ylcarbonyl)piperazin-1-yl)-1-(3-(thieno[2,3-b]pyridin-3-yl)phenyl)pyrrolidin-2-one] | 100
25 | O=C1Cc2c(-c3cccc(N4CC(N5CCN(C(=O)c6nccs6)CC5)CC4=O)c3)ccnc2N1 (stereo not shown) [Example 348, 4-(3-(2-oxo-4-(4-(1,3-thiazol-2-ylcarbonyl)piperazin-1-yl)pyrrolidin-1-yl)phenyl)-1,3-dihydro-2H-pyrrolo[2,3-b]pyridin-2-one] | 99
26 | O=C(c1nccs1)N1CCN(C2CC(=O)N(c3cccc(-c4nc(C(F)(F)F)cs4)c3)C2)CC1 (stereo not shown) [Example 349, 4-(4-(1,3-thiazol-2-ylcarbonyl)piperazin-1-yl)-1-(3-(4-(trifluoromethyl)-1,3-thiazol-2-yl)phenyl)pyrrolidin-2-one] | 98
27 | O=C(c1nccs1)N1CCN(C2CC(=O)N(c3cc(F)cc(-c4ccccc4Cl)c3)C2)CC1 (stereo not shown) [Example 350, 1-(2′-chloro-5-fluorobiphenyl-3-yl)-4-(4-(1,3-thiazol-2-ylcarbonyl)piperazin-1-yl)pyrrolidin-2-one] | 104
28 | COc1c(-c2cccc(N3CC(N4CCN(C(=O)c5nccs5)CC4)CC3=O)c2)ccc2c1NC(=O)C2 (stereo not shown) [Example 351, 7-Methoxy-6-(3-(2-oxo-4-(4-(1,3-thiazol-2-ylcarbonyl)piperazin-1-yl)pyrrolidin-1-yl)phenyl)-1,3-dihydro-2H-indol-2-one] | 100
29 | Cc1ccnc(C)c1-c1cccc(N2CC(N3CCN(C(=O)c4nccs4)CC3)CC2=O)c1 (stereo not shown) [Example 352, 1-(3-(2,4-dimethylpyridin-3-yl)phenyl)-4-(4-(1,3-thiazol-2-ylcarbonyl)piperazin-1-yl)pyrrolidin-2-one] | 102
30 | O=C(c1nccs1)N1CCN(C2CC(=O)N(c3cc(-c4ccccc4F)c4[nH]ccc4c3)C2)CC1 (stereo not shown) [Example 353, 1-(7-(2-Fluorophenyl)-1H-indol-5-yl)-4-(4-(1,3-thiazol-2-ylcarbonyl)piperazin-1-yl)pyrrolidin-2-one] | 101
31 | COc1ccccc1-c1cc(N2CC(N3CCN(C(=O)c4nccs4)CC3)CC2=O)cc2cc[nH]c12 (stereo not shown) [Example 354, 1-(7-(2-methoxyphenyl)-1H-indol-5-yl)-4-(4-(1,3-thiazol-2-ylcarbonyl)piperazin-1-yl)pyrrolidin-2-one] | 101
